Laboratory results taken from PMC11253567, “Drug repurposing of pyrazolotriazine derivatives as potential anti-SARS-CoV-2 agents: in vitro and in silico studies” (BMC Chemistry, 2024).
Values joined by “and” are separate entries in the source; they are usually repeats but may differ in a detail not shown here. Equal values may be shown once. Read-outs that look alike come from different tables or passages of the source.

Key:
[1] = system: SARS-CoV-2 (hCoV-19/Egypt/NRC-03/2020); conditions: cited from earlier work
[2] = in vitro; conditions: African green monkey
[3] = system: SARS-CoV-2 (hCoV-19/Egypt/NRC-03/2020); experiment: Inhibitory concentration 50 (IC50) determination, crystal violet CPE assay in VERO-E6 cells; conditions: for IC50: 50% reduction of virus-induced CPE
[4] = system: VERO-E6 cells; conditions: African green monkey
[5] = system: VERO-E6 cells; conditions: cited from earlier work
[6] = standard reference drug, SARS-CoV-2
[7] = Severe acute respiratory syndrome coronavirus 2, Vero C1008, SARS-CoV-2 in VERO-E6 cells

Q: With `CCN(CC)CCCC(C)Nc1ccnc2cc(Cl)ccc12` (stereo not drawn) [Chloroquine] as the compound, how does the IC50 [1, 6] read?
A: Its IC50 is 24.9 µM.

Q: Which results are given for `CCOC(=O)c1cnn2c(-c3ccccc3)nc(NCc3ccccc3)nc12` [Compound 1]?
A: CC50 [2]: 463 µM; IC50 ([3]; SARS-CoV-2 in VERO-E6 cells): 2.4 µM; SI (CC50/IC50) [3]: 190 and 192.8; IC50 [3, 7]: 2.45 µM

Q: Which CC50 [2] does the source give for `CCOC(=O)c1cnn2c(-c3ccc(Br)cc3)nc(NCc3ccccc3)nc12` [Compound 2] here?
A: Its CC50 is 445 µM.

Q: What about the IC50 ([3]; SARS-CoV-2 in VERO-E6 cells) of the same compound?
A: Its IC50 is 11.2 µM.

Q: And the “SI (CC50/IC50)” value [3]?
A: The value was 39.7.

Q: What about the IC50 [3, 7] of the same compound?
A: Its IC50 is 11.2 µM.

Q: Which results are given for `CCOC(=O)c1cnn2c(-c3ccc(Cl)cc3)nc(NCc3ccccc3)nc12` [Compound 3]?
A: CC50 [2]: 88.1 µM; CC50 [4]: 88 µM; IC50 ([3]; SARS-CoV-2 in VERO-E6 cells): 17.8 µM; SI (CC50/IC50) [3]: 4.9; IC50 [3, 7]: 17.8 µM

Q: For `CCOC(=O)c1cnn2c(-c3ccccc3)nc(N3CCCCC3)nc12` [Compound 4], which CC50 [2] is on record?
A: Its CC50 is 366 µM.

Q: And the IC50 ([3]; SARS-CoV-2 in VERO-E6 cells)?
A: The IC50 was 61.8 µM.

Q: What about the “SI (CC50/IC50)” value [3] of the same compound?
A: The value was 5.9.

Q: And the IC50 [3, 7]?
A: The IC50 was 61.9 µM.

Q: Which CC50 [2] does the source give for `CCOC(=O)c1cnn2c(-c3ccc(Cl)cc3)nc(N3CCCCC3)nc12` [Compound 5] here?
A: Its CC50 is 87.5 µM.

Q: What about the “SI (CC50/IC50)” value [3] of the same compound?
A: The value was 31.2.

Q: What about the IC50 [3, 7] of the same compound?
A: Its IC50 is 2.8 µM.

Q: Which “SI (CC50/IC50)” value [3] does the source give for `CCOC(=O)c1cnn2c(-c3ccccc3)nc(NCCc3ccccc3)nc12` [Compound 6] here?
A: Its value is 2.5.

Q: Which results are given for `CCOC(=O)c1cnn2c(-c3ccc(Br)cc3)nc(N3CCCC3)nc12` [Compound 7]?
A: CC50 [2]: 279 µM; SI (CC50/IC50) [3]: 10.6; IC50 [3, 7]: 26.1 µM

Q: What does the source list for `O=C(NCc1ccccc1)c1cnn2c(-c3ccccc3)nc(NCc3ccccc3)nc12` [Compound 8]?
A: CC50 [2]: 400 µM; IC50 ([3]; SARS-CoV-2 in VERO-E6 cells): 55 µM; SI (CC50/IC50) [3]: 7.2; IC50 [3, 7]: 55.1 µM

Q: What does the source list for `O=C(NCCc1ccccc1)c1cnn2c(-c3ccccc3)nc(NCCc3ccccc3)nc12` [Compound 9]?
A: CC50 [2]: 578 µM; IC50 ([3]; SARS-CoV-2 in VERO-E6 cells): 44.2 µM; SI (CC50/IC50) [3]: 13.0; IC50 [3, 7]: 44.2 µM

Q: For `O=C(NCCc1ccccc1)c1cnn2c(-c3ccc(Cl)cc3)nc(NCCc3ccccc3)nc12` [Compound 10], which CC50 [2] is on record?
A: Its CC50 is 343 µM.

Q: What about the IC50 ([3]; SARS-CoV-2 in VERO-E6 cells) of the same compound?
A: The IC50 was 60.7 µM.

Q: And the “SI (CC50/IC50)” value [3]?
A: Its value is 5.6.

Q: And the IC50 [3, 7]?
A: Its IC50 is 60.8 µM.

Q: Which IC50 [1, 6] does the source give for `NC(=O)c1nc(F)c[nH]c1=O` [Favipiravir] here?
A: The IC50 was 1380 µM.

Q: What about the “SI (CC50/IC50)” value ([1]; standard reference drug) of the same compound?
A: The value was 3.8.

Q: And the CC50 [5]?
A: The CC50 was 5260 µM.

Q: For `CCN(CCO)CCCC(C)Nc1ccnc2cc(Cl)ccc12` (stereo not drawn) [Hydroxy-chloroquine, Hydroxychloroquine], which IC50 [1, 6] is on record?
A: Its IC50 is 36.9 µM.

Q: And the “SI (CC50/IC50)” value ([1]; standard reference drug)?
A: Its value is 9.7.

Q: What about the CC50 ([5]; standard reference drug) of the same compound?
A: Its CC50 is 356 µM.

Q: With `CCC(CC)COC(=O)[C@H](C)N[P@](=O)(OC[C@H]1O[C@@](C#N)(c2ccc3c(N)ncnn23)[C@H](O)[C@@H]1O)Oc1ccccc1` [Remdesivir] as the compound, how does the IC50 ([1]; reference drug) read?
A: Its IC50 is 3.38 µM.

Q: And the CC50 ([5]; reference drug)?
A: The CC50 was 58.1 µM.
